# Data reported in patent US6916905B2, “Dmt-Tic di-and tri-peptidic derivatives and related compositions and methods of use” (The United States of America as represented by the …, priority 2000, dated 2005).
# “Also recorded” adds a separate entry of the source. Where two headings read alike, the source gives them in different places. Non-standard residues stand in square brackets, D forms with d. Residues, ends and D or L forms follow the SMILES beside them. *: point of attachment. Dmt = Cc1cc(O)cc(C)c1C[C@H](N)C(=O)O; Tic = O=C(O)[C@@H]1Cc2ccccc2CN1; NHtBu = CC(C)(C)N*
# How the values were obtained:
# δ-opioid receptors [1] = molecular target: T1, δ-opioid receptors (Rattus norvegicus, UniProt P33533); test: Rat brain synaptosome (P2) binding, agonist [3H]DPDPE (Example 47); settings: for Agonist K1μ/Kiδ: selectivity, Kiδ from agonist radioligand [3H]DPDPE; for δ/μ selectivity, in words: from Table II binding
# T1 construct: assayed with a rat brain synaptosomal preparation (P2); from tissue; host or cells: rat brain P2 synaptosomes
# Experimental: (§3) Briefly, the agonists [^3H]DPDPE (30-60 Ci/mmol, NEN-DuPont) and [^3H]DAGO (30-60 Ci/mmol, Amersham) were used to label δ and μ sites, respectively, under saturation binding conditions (2 hrs at 22° C.). Excess unlabeled peptide (2 μM) established non-specific binding levels and the labeled membranes were rapidly filtered on Whatman GF/C glass fibre filters, thoroughly washed, dried and measured for radioactivity using CytoScint (ICN, Irvine, Calif.). […] The affinity constants (Ki) were calculated according to Cheng and Prusoff (Biochem. Pharmacol. 22: 3099-3108 (1973)).
# μ-opioid receptors = molecular target: T2, μ-opioid receptors (Rattus norvegicus, UniProt P33535); test: Rat brain synaptosome (P2) binding, [3H]DAGO (Example 47)
# T2 construct: assayed with a rat brain synaptosomal preparation (P2); from tissue; host or cells: rat brain P2 synaptosomes
# hMDR-1 = hMDR-1 (Homo sapiens, UniProt P08183); test: Calcein AM assay for Pgp in hMDR-1 transfected G-185 fibroblasts (Example 49); settings: for order of inhibition of hMDR-1: rank within amide series; for inhibition of hMDR-1 (Pgp), in words: calcein fluorescence
# Experimental: Stably transfected G-185 fibroblasts containing hMDR-1 and NIH 3T3 cell lines were grown to confluent monolayers in DMEM containing 4.5 g glucose/1, 10% fetal calf serum, L-glutamine, penicillin (50 units/ml), streptomycin (50 μg/ml) and 1 mM sodium pyruvate in 5% CO2 at 37° C. G-185 cells were maintained in […] colchicine.
# The assay for Pgp is based on the diffusion of non-fluorescent calcein AM across the cell membrane. Calcein AM is then hydrolyzed and accumulates as the fluorescent calcein. In transfected cells expressing excess hMDR-1, Pgp extrudes calcein AM from the cell before hydrolysis occurs; inhibition of hMDR-1 results in the accumulation of intracellular calcein. Transfected G-185 cells and the NIH 3T3 cells were analyzed in triplicate using seven graded dosages of verapamil or the opioid peptides in 96-well plates. Cells (2.5×10^6/well) were incubated in 100 μl culture medium for 15 min at 37° C. and 50 μl of 1 μM calcein AM in PBS, plus 50 μl of verapamil or one of the present inventive compounds in PBS, or 100 μl of PBS alone (control) were added. Cells were mixed and incubated for 15 min at 37° C., then centrifuged for 5 min at 2,000×g, and then washed three times in 200 μl PBS. Cell pellets were resuspended in 200 μl PBS and transferred to white Microfluor Plates (Nunc, Copenhagen, Denmark) in order to measure calcein-specific fluorescence (494 nm absorption; 517 nm emission). Internal controls were carried out with each experiment using verapamil and PBS in order to compare the consistency between cell preparations. Means±SE (error bars) were determined and plotted using Prism™ (GraphPad, San Diego, Calif.).
# δ-opioid receptors [2] = molecular target: T1, δ-opioid receptors; test: Rat brain synaptosome (P2) binding, δ antagonist [3H]N,N(CH3)2-Dmt-Tic-OH (Example 47); settings: for Antagonist K1μ/Kiδ: selectivity, Kiδ from antagonist radioligand [3H]N,N(CH3)2-Dmt-Tic-OH
# Experimental: as §3
# δ receptors [3] = molecular target: T3, δ receptors (Mus musculus, UniProt P32300)
# Experimental: (§1) The functional bioactivity of the present inventive compounds was assessed using standard functional bioassays of δ and μ activity in MVD and GPI (Salvadori et al. (1995), supra; and Salvadori et al., J. Med. Chem. 36: 3748-3756 (1993)). […] Dose-response curves were obtained (Salvadori et al. (1995), supra) for both tissues. […] Data were derived from at least four independent tissue samples and dose-response curves from which the pA2 values were determined (Salvadori et al. (1997), supra) according to Arunlakshana and Schild (Br. J. Pharmacol. 14: 48-58 (1959)).
# μ receptors [4] = molecular target: μ receptors (Cavia porcellus, UniProt P97266); test: Guinea pig ileum (GPI) functional bioassay (Example 48); settings: for GPI Ke: μ antagonism
# Experimental: as §1
# δ receptors [5] = molecular target: T3, δ receptors; test: MVD functional pharmacological bioassay (Example 75); set-up: A single MVD was suspended in 4 ml modified Kreb's solution; from tissue; host or cells: mouse vas deferens
# μ receptors [6] = molecular target: T4, μ receptors (Rattus norvegicus, UniProt P33535); test: Radio-receptor competition assay, rat brain synaptosomes, [3H]DAGO (Example 74); assay type: binding; settings: rat brain P2 synaptosomes, [3H]DAGO; read-out: Receptor affinity (nM) Kiμ
# T4 construct: assayed with a rat brain synaptosomal preparation (P2); from tissue; host or cells: rat brain P2 synaptosomes
# Experimental: (§2) After 120 min incubation at room temperature (23-24° C.), the samples were rapidly filtered through Whatman GF/C glass fiber filers and washed three times with 2 ml ice-cold 0.05 M Tris, pH 7.4-7.5, containing 0.1% BSA. Presoaking filters in 0.1% polyethylenimine is only required in assays with peptides carrying an overall positive charge, such as dynorphin or nociceptin (Guerrini et al., J. Med. Chem., 40: 1789-1793 (1997)). Non-specific binding was determined using 2 μM unlabeled DPDPE or DAGO for δ or μ assays, respectively. The Ki data, determined according to Cheng and Prusoff (Cheng et al., Biochem. Pharmacol., 22: 3099-3108 (1973)), represent the means±SE from 3 or more independent assays using at least 3 different synaptosome preparations and testing the analogues with 5-8 graded dosages over 2-3 orders of magnitude in concentration.
# δ receptors [7] = molecular target: T5, δ receptors (Rattus norvegicus, UniProt P33533); test: Radio-receptor competition assay, rat brain synaptosomes, [3H]DPDPE (Example 74); assay type: binding; settings: for μ/δ: selectivity Kiμ/Kiδ
# T5 construct: assayed with a rat brain synaptosomal preparation (P2); from tissue; host or cells: rat brain P2 synaptosomes
# Experimental: as §2
# [8] = rat brain synaptosomes (P2), mean ± SEM, n in parentheses, read-out: Kiδ(nM) [^3H]DPDPE
# [9] = rat brain synaptosomes (P2), mean ± SEM, n in parentheses, read-out: Kiμ (nM) [^3H]DAGO
# [10] = rat brain synaptosomes (P2), δ antagonist radioligand, mean ± SEM, n in parentheses, read-out: Kiδ(nM) [^3H]N,N(CH3)2-Dmt-Tic-OH
# [11] = MVD pA2 (range), δ antagonism against deltorphin C, mean (range)
# [12] = δ antagonism, Ke = antilog of pA2
# [13] = MVD Ke(nM), δ antagonism, Ke = antilog of pA2
# Chain of hMDR-1 (P08183 whole entry): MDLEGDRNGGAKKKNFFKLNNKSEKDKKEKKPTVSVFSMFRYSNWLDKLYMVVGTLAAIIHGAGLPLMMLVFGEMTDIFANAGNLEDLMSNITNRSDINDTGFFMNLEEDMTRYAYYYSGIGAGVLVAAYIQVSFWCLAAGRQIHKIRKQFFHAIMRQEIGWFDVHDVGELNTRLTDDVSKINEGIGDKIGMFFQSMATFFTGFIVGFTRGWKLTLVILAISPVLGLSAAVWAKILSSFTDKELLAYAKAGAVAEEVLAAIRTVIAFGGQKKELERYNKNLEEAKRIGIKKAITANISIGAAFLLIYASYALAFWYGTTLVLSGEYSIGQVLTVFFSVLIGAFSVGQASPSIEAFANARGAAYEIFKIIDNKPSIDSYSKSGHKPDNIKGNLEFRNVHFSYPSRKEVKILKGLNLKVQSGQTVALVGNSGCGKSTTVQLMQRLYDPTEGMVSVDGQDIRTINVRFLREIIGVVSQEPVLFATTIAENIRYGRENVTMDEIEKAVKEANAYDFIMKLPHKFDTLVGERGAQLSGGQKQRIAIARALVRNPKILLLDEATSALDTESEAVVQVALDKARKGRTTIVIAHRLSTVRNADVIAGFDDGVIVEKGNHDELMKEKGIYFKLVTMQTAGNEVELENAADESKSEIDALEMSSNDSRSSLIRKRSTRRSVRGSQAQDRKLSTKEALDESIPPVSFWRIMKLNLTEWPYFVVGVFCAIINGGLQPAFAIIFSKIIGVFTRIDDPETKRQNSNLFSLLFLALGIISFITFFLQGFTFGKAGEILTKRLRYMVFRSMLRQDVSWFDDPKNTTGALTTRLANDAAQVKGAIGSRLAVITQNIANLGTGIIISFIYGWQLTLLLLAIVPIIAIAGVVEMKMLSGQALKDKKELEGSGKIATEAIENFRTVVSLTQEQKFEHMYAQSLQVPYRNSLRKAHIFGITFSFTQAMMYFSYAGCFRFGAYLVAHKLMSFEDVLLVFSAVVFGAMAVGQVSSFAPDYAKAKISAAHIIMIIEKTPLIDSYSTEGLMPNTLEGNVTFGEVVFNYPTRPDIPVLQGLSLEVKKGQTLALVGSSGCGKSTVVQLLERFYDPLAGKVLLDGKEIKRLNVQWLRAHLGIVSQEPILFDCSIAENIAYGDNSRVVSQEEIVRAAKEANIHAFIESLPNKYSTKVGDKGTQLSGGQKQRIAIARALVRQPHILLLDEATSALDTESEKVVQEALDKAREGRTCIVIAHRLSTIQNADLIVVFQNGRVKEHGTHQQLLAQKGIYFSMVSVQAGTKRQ
# Chain of μ receptors (Cavia porcellus, UniProt P97266) (P97266 whole entry, looked up): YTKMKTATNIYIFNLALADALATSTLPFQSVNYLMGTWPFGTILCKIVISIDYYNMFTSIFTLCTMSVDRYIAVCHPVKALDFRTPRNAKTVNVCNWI
# T3 sequence (P32300 whole entry): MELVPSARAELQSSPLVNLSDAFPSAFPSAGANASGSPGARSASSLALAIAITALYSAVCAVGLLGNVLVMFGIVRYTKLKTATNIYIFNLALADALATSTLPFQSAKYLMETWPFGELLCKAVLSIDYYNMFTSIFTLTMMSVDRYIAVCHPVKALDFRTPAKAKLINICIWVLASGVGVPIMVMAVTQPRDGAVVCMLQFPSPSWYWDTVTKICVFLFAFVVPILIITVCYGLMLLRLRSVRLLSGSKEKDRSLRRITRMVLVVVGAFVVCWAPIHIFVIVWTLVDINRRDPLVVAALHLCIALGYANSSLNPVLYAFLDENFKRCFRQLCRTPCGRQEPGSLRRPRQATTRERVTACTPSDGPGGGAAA
# T5 sequence (P33533 whole entry): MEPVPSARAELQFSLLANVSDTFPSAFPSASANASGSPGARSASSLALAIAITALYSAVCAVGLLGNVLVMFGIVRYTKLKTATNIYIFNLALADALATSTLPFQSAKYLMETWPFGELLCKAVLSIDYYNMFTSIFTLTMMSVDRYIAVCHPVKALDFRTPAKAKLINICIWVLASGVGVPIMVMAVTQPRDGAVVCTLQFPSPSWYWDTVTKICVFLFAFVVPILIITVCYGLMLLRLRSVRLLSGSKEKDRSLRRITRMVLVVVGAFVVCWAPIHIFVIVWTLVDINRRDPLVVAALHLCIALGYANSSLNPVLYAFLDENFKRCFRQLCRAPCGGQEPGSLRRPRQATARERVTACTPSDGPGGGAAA
# T1 sequence (P33533 whole entry): as above
# T2 sequence (P33535 whole entry): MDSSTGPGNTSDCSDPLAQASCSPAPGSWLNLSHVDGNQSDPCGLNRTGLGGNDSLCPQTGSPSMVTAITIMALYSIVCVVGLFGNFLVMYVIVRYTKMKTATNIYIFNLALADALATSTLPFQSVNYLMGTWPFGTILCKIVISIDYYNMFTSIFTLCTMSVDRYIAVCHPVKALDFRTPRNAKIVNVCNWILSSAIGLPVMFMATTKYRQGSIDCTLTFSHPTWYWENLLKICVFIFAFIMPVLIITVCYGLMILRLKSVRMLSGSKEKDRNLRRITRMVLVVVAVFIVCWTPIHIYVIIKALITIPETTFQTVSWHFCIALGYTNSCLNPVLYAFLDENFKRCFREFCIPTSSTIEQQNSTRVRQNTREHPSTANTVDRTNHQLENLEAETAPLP
# T4 sequence (P33535 whole entry): as above
SMILES,Agonist K1μ/Kiδ (δ-opioid receptors [1]),Ki (μ-opioid receptors; [9]),order of inhibition of hMDR-1 (hMDR-1),Antagonist K1μ/Kiδ (δ-opioid receptors [2]),"bioactivity on MVD (δ), in words (δ receptors [3])",Kb (δ receptors [3]; [11]),MVD Ke (δ receptors [3]; [12]),EC50 (μ receptors [4]),"inhibition of hMDR-1 (Pgp), in words (hMDR-1)",also measured
"Cc1cc(O)cc(C)c1C[C@H](N)C(=O)N1Cc2ccccc2C[C@H]1C(=O)N[C@@H](C)C(=O)NC(C)(C)C [Compound 20, H-Dmt-Tic-Ala-NH-tBu] (H-[Dmt]-[Tic]-Ala-NHtBu; N-terminus and C-terminus assumed)",61,4.03 ± 0.21 nM,(compound 20)>H-Dmt-Tic-NH-tBu (compound 9),48,highest δ-antagonist functional bioactivities,0.692 nM,0.69 nM,> 10000 nM,,Ki (δ-opioid receptors [1]; [8]): 0.066 ± 0.01 nM; Ki (δ-opioid receptors [2]; [10]): 0.08 ± 0.02 nM; Kb (μ receptors [4]): 174 nM; GPI Ke (μ receptors [4]): 0.17 µM
"Cc1cc(O)cc(C)c1C[C@H](N)C(=O)N1Cc2ccccc2C[C@H]1C(=O)NCc1nc2ccccc2[nH]1 [Compound 24, H-Dmt-Tic-NH—CH2-Bid]",,,,,,,,,,"δ activity on MVD, in words (δ receptors [5]): potent δ-agonist activity; MVD, antagonist activity (pA2) N,N(CH3)2-Dmt-Tic-OH (δ receptors [5]; pA2 of N,N(CH3)2-Dmt-Tic-OH against the listed δ agonist): 9.70; MVD, antagonist activity (pA2) naloxone (δ receptors [5]; pA2 of naloxone against the listed δ agonist): 7.45; Functional Bioactivity MVD (pEC50) (δ receptors [5]; δ agonism): 9.90"
"Cc1cc(O)cc(C)c1C[C@H](N)C(=O)N1Cc2ccccc2C[C@H]1CO [H-Dmt-Tic-ol, reference compound]",,,,,,,,,,Ki (μ receptors [6]): 151 nM; μ/δ (δ receptors [7]): 344
"Cc1cc(O)cc(C)c1C[C@@H](C(=O)N1Cc2ccccc2C[C@H]1C(=O)NC12CC3CC(CC(C3)C1)C2)N(C)C [Compound 15, N,N(Me)2-Dmt-Tic-NH-1-adamantane]",7,,(compound 15)=H-Dmt-Tic-NH-1-adamantane (compound 11),9,,0.871 nM,0.87 nM,16 nM,,"Ki (δ-opioid receptors [1]): 0.16 ± 0.17 nM; δ/μ selectivity, in words (δ-opioid receptors [1]): essentially nonselective; Ki (μ-opioid receptors): 1.12 ± 0.1 nM; rise in μ affinity relative to N,N(Me)2-Dmt-Tic-OH (μ-opioid receptors): ~2,200 fold; Ki (δ-opioid receptors [2]): 0.12 ± 0.02 nM; bioactivity on GPI (μ), in words (μ receptors [4]): clearly displayed μ agonism"
"Cc1cc(O)cc(C)c1C[C@H](N)C(=O)N1Cc2ccccc2C[C@H]1C(=O)NCC(=O)NCc1nc2ccccc2[nH]1 [Compound 26, H-Dmt-Tic-Gly-NH—CH2-Bid]",,,,,,,,,,"δ activity on MVD, in words (δ receptors [5]): potent δ antagonist activity; δ/μ selectivity, in words (δ receptors [7]; from Table IV binding): essentially non-selective; μ/δ (δ receptors [7]): 353"
"Cc1cc(O)cc(C)c1C[C@@H](C(=O)N1Cc2ccccc2C[C@H]1C(=O)NC(C)(C)C)N(C)C [Compound 14, N,N(Me)2-Dmt-Tic-NH-tBu]",,226 ± 21 nM,(compound 14)>H-Dmt-Tic-Ala-NH-tBu (compound 20),,modest δ antagonism,14.1 nM,14.1 nM,> 10000 nM,,"Kb (μ receptors [4]): 300 nM; bioactivity on GPI (μ), in words (μ receptors [4]): weak μ antagonism"
"Cc1cc(O)cc(C)c1C[C@@H]1NC(=O)[C@@H]2Cc3ccccc3CN2C1=O [cyclo (DMT-Tic), reference compound]",635 ± 69 (3-5),,,no activity,,,,,moderately effective inhibitor,"Ki (δ-opioid receptors [1]): 9.58 ± 1.98 nM; Kiμ (nM) [^3H]DAGO (μ-opioid receptors; rat brain synaptosomes (P2), mean ± SEM, n in parentheses): no activity"
"CNC(=O)[C@@H]1Cc2ccccc2CN1C(=O)[C@@H](N)Cc1c(C)cc(O)cc1C [Compound 7, H-Dmt-Tic-NHMe] (H-[Dmt]-[Tic]-NHMe)",,85.5 ± 7.7 nM,,,extraordinarily weak δ agonism,,,> 10000 nM,inactive,"EC50 (δ receptors [3]): 21200 nM; Kb (δ receptors [3]; [13]): > 10000 nM; MVD pA2 (range) (δ receptors [3]; δ antagonism against deltorphin C, mean (range)): —^d; Kb (μ receptors [4]): 1150 nM; bioactivity on GPI (μ), in words (μ receptors [4]): low μ antagonism; GPI Ke (μ receptors [4]): 1.15 µM"
"Cc1cc(O)cc(C)c1C[C@H](N)C(=O)N1Cc2ccccc2C[C@H]1C(=O)N[C@@H](C)C(=O)NC12CC3CC(CC(C3)C1)C2 [Compound 21, H-Dmt-Tic-Ala-NH-1-adamantane]",,,"(compound 21)>>N,N(Me)2-Dmt-Tic-OH (inactive)",,highest δ-antagonist functional bioactivities,0.513 nM,0.51 nM,1000 nM,,Ki (μ-opioid receptors): 2.52 ± 0.56 nM
"Cc1cc(O)cc(C)c1C[C@H](N)C(=O)N1Cc2ccccc2C[C@H]1C(=O)NC(C)(C)C [Compound 9, H-Dmt-Tic-NH-tBu] (H-[Dmt]-[Tic]-NHtBu)",14,5.96 ± 0.82 nM,(compound 9)>>H-Dmt-Tic-NHMe (compound 7) (inactive),6,highest δ-antagonist functional bioactivities,5.75 nM,,1040 nM,,"δ/μ selectivity, in words (δ-opioid receptors [1]): essentially nonselective; Ki (δ-opioid receptors [1]; [8]): 0.43 ± 0.07 nM; Ki (δ-opioid receptors [2]; [10]): 0.93 ± 0.15 nM; Kb (δ receptors [3]; [13]): 1.74 nM"
Oc1ccc2c3c1O[C@H]1c4[nH]c5ccccc5c4C[C@@]4(O)[C@@H](C2)N(CC2CC2)CC[C@]314 [naltrindole],,,,,,,,,inhibition that dissipated at high concentrations,
"Cc1cc(O)cc(C)c1C[C@@H](C(=O)N1Cc2ccccc2C[C@H]1C(=O)O)N1CCCCC1 [Compound 3, [des-NH2-α-piperidine-1-yl]-Dmt-Tic-OH]",1728,2040 ± 264 nM,,2755,detrimental for all bioactivity measurements on MVD,49 nM,49 nM,> 10000 nM,inactive,Ki (δ-opioid receptors [1]; [8]): 1.18 ± 0.1 nM; Ki (δ-opioid receptors [2]; [10]): 0.74 ± 0.3 nM
"CC1(C)SSC(C)(C)[C@@H](NC(=O)[C@@H](N)Cc2ccc(O)cc2)C(=O)NCC(=O)N[C@@H](Cc2ccccc2)C(=O)N[C@H]1C(=O)O [DPDPE, H-Tyr-[D-Pen-Gly-Phe-D-Pen] enkephalin]",,,,,,,,,inactive; also recorded: lack of inhibition,
"Cc1cc(O)cc(C)c1C[C@H](N)C(=O)N1Cc2ccccc2C[C@H]1C(=O)NC12CC3CC(CC(C3)C1)C2 [Compound 11, H-Dmt-Tic-NH-1-adamantane]",3,,(compound 11)>H-Dmt-Tic-Ala-NH-1-adamantane (compound 21),0.8,,,,36 nM,,"Ki (δ-opioid receptors [1]): 0.26 ± 0.05 nM; δ/μ selectivity, in words (δ-opioid receptors [1]): weakly μ selective; Ki (μ-opioid receptors): 0.76 ± 0.05 nM; Ki (δ-opioid receptors [2]): 1.01 ± 0.26 nM; EC50 (δ receptors [3]): 870 nM; Kb (δ receptors [3]; [13]): > 10000 nM; bioactivity on GPI (μ), in words (μ receptors [4]): moderate μ agonism"
"C[C@@H](NC(=O)[C@@H](N)Cc1ccc(O)cc1)C(=O)N[C@@H](Cc1ccccc1)C(=O)NCC(=O)N[C@@H](Cc1ccc(O)cc1)C(=O)N1CCC[C@H]1C(=O)N[C@@H](CO)C(N)=O [Dermorphin, H-Tyr-D-Ala-Phe-Gly-Tyr-Pro-Ser-NH2]",,,,,,,,,lack of inhibition,"inhibition of hMDR-1 (Pgp), in words (hMDR-1; listed as DER): inactive; IC50 (μ receptors [4]): 1.82 nM"
